{"source": "patent US20110039841A1", "about": "“Novel compounds, their preparation and use” (Novo Nordisk A/S, priority 2004, published 2011)", "origin": "cited, not measured here", "key": {"PPARδ": {"target": "T1, PPARδ (Mus musculus, UniProt P35396)", "T1 construct": "pharmacological treatment of both high fat diet induced insulin resistant mice and diabetic ob/ob with the potent PPARδ agonist GW501516; host or cells: mice (high fat diet induced insulin resistant; ob/ob), in vivo", "T1 sequence (P35396 1-440)": "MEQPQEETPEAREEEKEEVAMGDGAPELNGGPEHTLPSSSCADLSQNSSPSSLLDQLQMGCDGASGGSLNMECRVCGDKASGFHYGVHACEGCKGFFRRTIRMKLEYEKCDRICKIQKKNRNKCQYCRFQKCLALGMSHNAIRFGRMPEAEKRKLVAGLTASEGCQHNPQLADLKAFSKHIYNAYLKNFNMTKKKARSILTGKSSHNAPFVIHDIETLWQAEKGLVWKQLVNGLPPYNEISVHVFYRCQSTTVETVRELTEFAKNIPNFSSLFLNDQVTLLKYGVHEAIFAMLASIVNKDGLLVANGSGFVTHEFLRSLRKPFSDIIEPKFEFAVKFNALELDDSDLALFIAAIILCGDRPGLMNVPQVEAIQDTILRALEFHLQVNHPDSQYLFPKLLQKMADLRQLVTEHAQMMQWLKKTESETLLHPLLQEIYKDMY", "settings": "high fat diet induced insulin resistant mice and diabetic ob/ob; PNAS 2003, 100, 15924-15929"}, "C2C12 muscle cells": {"system": "C2C12 muscle cells", "settings": "in vitro, BioChem. Biophys. Acta 2003, 1633, 43-50, Mol. Endocrin. 2003, 17, 2477-2493"}}}
{"smiles": "Cc1cc(SCc2sc(-c3ccc(C(F)(F)F)cc3)nc2C)ccc1OCC(=O)O", "note": "[GW501516]", "values": [{"measurement": "plasma glucose, insulin and insulin sensitivity", "setting": "PPARδ", "value": "lowering of plasma glucose and insulin and improved insulin sensitivity"}, {"measurement": "regulation of genes of lipid metabolism and energy expenditure", "setting": "C2C12 muscle cells", "value": "regulation of genes involved with TG hydrolysis and FFA oxidation"}]}
